# Assays:
# [1] = Drug levels in lungs and plasma after inhalation vs. oral gavage; assay type: in vivo, mice
# [2] = system: A549 xenografts; test: A549 xenografts in nude mice, PS V and curcumin alone and combined; assay type: in vivo, female nude mice; conditions: for inhibition of tumor growth (in words): duration of the study, to day 36; for average tumor volume: end of the study (day 36), PS V 200 mg/kg/d, curcumin 500 mg/kg/d, control 521±76 mm^3; for reduction in tumor weight: PS V p=0.06, PS V plus curcumin p<0.01
# Method: Polymeric nanoparticles of poly(c-caprolactone) (11000)-polyethylene glycol (5000) with entrapped curcumin were prepared according to the nanopercipitation-solvent displacement method. […] Then, the mice were inoculated subcutaneously on both flanks with […] cells (2×10^6 each). The treatment was resumed one day after tumor implantation and continued daily until the end of the study.
# [3] = system: human cancer cells; test: Cytotoxicity to human cancer cells compared with metabolites; assay type: cell-based
# [4] = Pharmacokinetic parameters in lung and plasma after inhalational administration (HPLC)
# Method: After 8 min of inhalation treatment, BALB/c nude mice were euthanized at various time points and drug levels were analyzed by HPLC in plasma and lung tissues.
# [5] = system: pre-clinical models of lung cancer; conditions: cited from earlier work
# [6] = mouse, in vivo, inhaled or intranasal
# [7] = plasma, after 8 min of inhalation treatment
smiles,measurement,setting,value
"CCOP(=O)(OCC)OCCCCOC(=O)CC1=C(C)/C(=C/c2ccc([S+](C)[O-])cc2)c2ccc(F)cc21 (centres unmarked) [PS V, phospho-sulindac]",PS levels in plasma,[1]; after inhalation and oral administration,undetectable
same,"total drug levels (PS V plus its metabolites) in lungs, inhalation compared to oral",[1]; inhalation 6.5 mg/kg vs oral 150 mg/kg,significantly higher
same,inhibition of tumor growth (in words),[2],small inhibition of tumor growth
same,average tumor volume,[2],419±36 mm^3
same,reduction in tumor volume,"[2]; end of the study, vs control",19.6%
same,reduction in tumor weight,[2]; vs control,27%
same,"cytotoxicity relative to sulindac, sulindac sulfide XI and sulindac sulfone XII",[3],more cytotoxic
"CSc1ccc(/C=C2/C(C)=C(CC(=O)O)c3cc(F)ccc32)cc1 [Sulindac sulfide XI, sulindac sulfide]",AUC,[4]; [6],18.9
"CC1=C(CC(=O)O)c2cc(F)ccc2/C1=C\c1ccc(S(C)(=O)=O)cc1 [Sulindac sulfone XII, sulindac sulfone]",AUC,[4]; [6],57.5
same,Cmax,[4]; [6],4.6 nmol/g
"CC1=C(CC(=O)O)c2cc(F)ccc2/C1=C\c1ccc([S+](C)[O-])cc1 (centres unmarked) [Sulindac, sulindac]",Tmax,"[4]; lung, after 8 min of inhalation treatment",0 h
same,AUC,[4]; [7],49.5
same,Tmax,[4]; [7],0 h
COc1cc(/C=C/C(=O)CC(=O)/C=C/c2ccc(O)c(OC)c2)ccc1O [curcumin],inhibition of tumor growth (in words),[2],ineffective
same,average tumor volume,[2],599±98 mm^3
same,reduction in tumor weight,[2]; vs control,not
same,efficacy as a single agent,[5],< 30%

# Source: patent US20140088044A1, “PRODUCT COMPRISING A NICOTINE-CONTAINING MATERIAL AND AN ANTI-CANCER AGENT” (priority 2012, published 2014)
